In test [1] the test system is cultured human mast cells (CHMC). As to the kind of experiment: CHMC low cell density IgE activation: tryptase assay. Format: cell-based. To be noted: low cell density CHMC, IgE activation. Summed up:
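Tryptase release was read from supernatant with a fluorogenic substrate (30 min, room temperature) after anti-IgE challenge of cultured human mast cells (1000–1500 cells/well, low density) for 30 minutes at 37° C.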

Test [2] has the same test system. Nature of the test: CHMC low cell density ionomycin activation: tryptase assay. The test is classed as cell-based. To be noted: low cell density CHMC, 3 pt, read-out: LD Tryptase, CHMC, Iono, 3 pt.
The mark [3] stands for this setting: Homo sapiens, Mast cell, tryptase, 3 pt, read-out: LD Tryptase, CHMC, IgE, 3 pt.
[4] abbreviates: Homo sapiens, Mast cell, tryptase, 8 pt, read-out: LD Tryptase, CHMC, IgE, 8 pt.
Where [5] appears, read: Homo sapiens, Mast cell, tryptase.
Setting [6] is: Homo sapiens, Mast cell, tryptase release, 3 pt, read-out: LD Tryptase, CHMC, IgE, 3 pt.
Setting [7] is: Homo sapiens, Mast cell, tryptase release, 8 pt, read-out: LD Tryptase, CHMC, IgE, 8 pt.
Setting [8] is: Homo sapiens, Mast cell, tryptase release.

Where a name gives a salt, the structure may show the parent alone.

For `CCn1ncc2cc(Nc3ncc(F)c(Nc4ccc5c(c4)NC(=O)C(C)(C)O5)n3)ccc21` [Compound 696, N4-(2,2-Dimethyl-3-oxo-4H-benz[1,4]oxazin-6-yl)-N2-(1-ethylindazol-5-yl)-5-fluoro-2,4-pyrimidinediamine], the IC50 in test [1] (setting [3]), in test [1] (setting [4]) and in test [2] (setting [5]) was less than 10 µM throughout.

For `CCn1ncc2cc(Nc3ncc(F)c(Nc4ccc(F)c(OC)c4)n3)ccc21` [Compound 697, N2-(1-Ethylindazol-5-yl)-5-fluoro-N4-(4-fluoro-3-methoxyphenyl)-2,4-pyrimidinediamine], the IC50 was less than 10 µM in test [1] (setting [3]), less than 10 µM in test [1] (setting [4]) and more than 10 µM in test [2] (setting [5]).

For the compound `CCn1ncc2ccc(Nc3ncc(F)c(Nc4ccc(OC)c(Cl)c4)n3)cc21` [Compound 698, N4-(3-Chloro-4-methoxyphenyl)-N2-(1-ethylindazol-6-yl)-5-fluoro-2,4-pyrimidinediamine], the IC50 in test [1] (setting [3]) is less than 10 µM; in test [1] (setting [4]) it was less than 10 µM; in test [2] (setting [5]), more than 10 µM.

On to `CCn1ncc2ccc(Nc3ncc(F)c(Nc4ccc(Cl)c(Cl)c4)n3)cc21` [Compound 699, N4-(3,4-Dichlorophenyl)-N2-(1-ethylindazol-6-yl)-5-fluoro-2,4-pyrimidinediamine], for which the IC50 in test [1] (setting [3]) and in test [2] (setting [5]) was less than 10 µM in each case.

Turning to `CCn1ncc2ccc(Nc3ncc(F)c(Nc4ccc5c(c4)NC(=O)C(C)(C)O5)n3)cc21` [Compound 700, N4-(2,2-Dimethyl-3-oxo-4H-benz[1,4]oxazin-6-yl)-N2-(1-ethylindazol-6-yl)-5-fluoro-2,4-pyrimidinediamine], the IC50 in test [1] (setting [3]), in test [1] (setting [4]) and in test [2] (setting [5]) was less than 10 µM throughout.

Turning to `CCn1ncc2ccc(Nc3ncc(F)c(Nc4ccc(F)c(OC)c4)n3)cc21` [Compound 701, N2-(1-Ethylindazol-6-yl)-5-fluoro-N4-(4-fluoro-3-methoxyphenyl)-2,4-pyrimidinediamine], the IC50 in test [1] (setting [3]) and in test [2] (setting [5]) was less than 10 µM throughout.

`CCCn1ncc2ccc(Nc3ncc(F)c(Nc4ccc(OC)c(Cl)c4)n3)cc21` [Compound 706, N4-(3-Chloro-4-methoxyphenyl)-5-fluoro-N2-(1-n-propylindazol-6-yl)-2,4-pyrimidinediamine]: the IC50 in test [1] (setting [4]) and in test [2] (setting [5]) was less than 10 µM in each case.

Turning to `CCn1cc2ccc(Nc3ncc(F)c(Nc4ccc5c(c4)NC(=O)C(C)(C)O5)n3)cc2n1` [Compound 761, N4-(2,2-Dimethyl-3-oxo-4H-benz[1,4]oxazin-6-yl)-N2-(2-ethylindazol-6-yl)-5-fluoro-2,4-pyrimidinediamine], the IC50 in test [1] (setting [3]) is less than 10 µM; in test [1] (setting [4]), less than 10 µM; in test [2] (setting [5]), more than 10 µM.

With `Cn1ncc2ccc(Nc3ncc(F)c(Nc4ccc5c(c4)NC(=O)C(C)(C)O5)n3)cc21` [Compound 766, N4-(2,2-Dimethyl-3-oxo-4H-benz[1,4]oxazin-6-yl)-5-fluoro-N2-(1-methylindazol-6-yl)-2,4-pyrimidinediamine DL-Camphor-1-sulfonic Acid Salt], the IC50 is less than 10 µM in test [1] (tryptase, 3 pt, read-out: LD Tryptase, CHMC, IgE, 3 pt); less than 10 µM in test [1] (tryptase, 8 pt, read-out: LD Tryptase, CHMC, IgE, 8 pt); more than 10 µM in test [2] (tryptase).

Regarding `Cn1ncc2ccc(Nc3ncc(F)c(Nc4ccc5c(c4)NC(=O)C(C)(C)O5)n3)cc21` [Compound 769, N4-(2,2-Dimethyl-3-oxo-4H-benz[1,4]oxazin-6-yl)-5-fluoro-N2-(1-methylindazol-6-yl)-2,4-pyrimidinediamine Benzenesulfonic Acid Salt], the results for the IC50 in test [1] (setting [6]), in test [1] (setting [7]) and in test [2] (setting [8]) were less than 10 µM, less than 10 µM and more than 10 µM, respectively.

`COCCn1ncc2cc(Nc3ncc(F)c(Nc4ccc(Cl)c(Cl)c4)n3)ccc21` [Compound 771, N4-(3,4-Dichlorophenyl)-5-fluoro-N2-[1-(2-methoxyethyl)indazol-5-yl]-2,4-pyrimidinediamine]: the IC50 was less than 10 µM in test [1] (setting [6]), less than 10 µM in test [1] (setting [7]) and more than 10 µM in test [2] (setting [8]).

Regarding `COCCn1ncc2cc(Nc3ncc(F)c(Nc4ccc(OC)c(Cl)c4)n3)ccc21` [Compound 772, N4-(3-Chloro-4-methoxyphenyl)-5-fluoro-N2-[1-(2-methoxyethyl)indazol-5-yl]-2,4-pyrimidinediamine], the results for the IC50 in test [1] (setting [6]), in test [1] (setting [7]) and in test [2] (setting [8]) were less than 10 µM, less than 10 µM and more than 10 µM, respectively.

As for `COCCn1ncc2cc(Nc3ncc(F)c(Nc4ccc5c(c4)NC(=O)C(C)(C)O5)n3)ccc21` [Compound 773, N4-(2,2-Dimethyl-3-oxo-4H-benz[1,4]oxazin-6-yl)-5-fluoro-N2-[1-(2-methoxyethyl)indazol-5-yl]-2,4-pyrimidinediamine], the results for the IC50 in test [1] (setting [6]), in test [1] (setting [7]) and in test [2] (setting [8]) were less than 10 µM, less than 10 µM and more than 10 µM, respectively.

In the case of `COCCn1ncc2cc(Nc3ncc(F)c(Nc4ccc(F)c(OC)c4)n3)ccc21` [Compound 774, 5-Fluoro-N4-(4-fluoro-3-methoxyphenyl)-N2-[1-(2-methoxyethyl)indazol-5-yl]-2,4-pyrimidinediamine], the results for the IC50 in test [1] (setting [6]), in test [1] (setting [7]) and in test [2] (setting [8]) were less than 10 µM, less than 10 µM and more than 10 µM, respectively.

Consider `COCCn1ncc2ccc(Nc3ncc(F)c(Nc4ccc(Cl)c(Cl)c4)n3)cc21` [Compound 775, N4-(3,4-Dichlorophenyl)-5-fluoro-N2-[1-(2-methoxyethyl)indazol-6-yl]-2,4-pyrimidinediamine], for which the IC50 was less than 10 µM in test [1] (setting [6]), less than 10 µM in test [1] (setting [7]) and more than 10 µM in test [2] (setting [8]).

In the case of `COCCn1ncc2ccc(Nc3ncc(F)c(Nc4ccc(OC)c(Cl)c4)n3)cc21` [Compound 776, N4-(3-Chloro-4-methoxyphenyl)-5-fluoro-N2-[1-(2-methoxyethyl)indazol-6-yl]-2,4-pyrimidinediamine], the IC50 in test [1] (setting [6]) was less than 10 µM; in test [1] (setting [7]), less than 10 µM; in test [2] (setting [8]) it was more than 10 µM.

`COCCn1ncc2ccc(Nc3ncc(F)c(Nc4ccc5c(c4)NC(=O)C(C)(C)O5)n3)cc21` [Compound 777, N4-(2,2-Dimethyl-3-oxo-4H-benz[1,4]oxazin-6-yl)-5-fluoro-N2-[1-(2-methoxyethyl)indazol-6-yl]-2,4-pyrimidinediamine]: the IC50 is less than 10 µM in test [1] (setting [6]), less than 10 µM in test [1] (setting [7]) and more than 10 µM in test [2] (setting [8]).

Take `COCCn1ncc2ccc(Nc3ncc(F)c(Nc4ccc(F)c(OC)c4)n3)cc21` [Compound 778, 5-Fluoro-N4-(4-fluoro-3-methoxyphenyl)-N2-[1-(2-methoxyethyl)indazol-6-yl]-2,4-pyrimidinediamine]: the IC50 in test [1] (setting [6]) is less than 10 µM; in test [2] (setting [8]), more than 10 µM.

As to `CC(=O)OCCCn1ncc2cc(Nc3ncc(F)c(Nc4ccc(Cl)c(Cl)c4)n3)ccc21` [Compound 787, N2-[1-(3-Acetyloxypropyl)indazol-5-yl]-N4-(3,4-dichlorophenyl)-5-fluoro-2,4-pyrimidinediamine], the IC50 is less than 10 µM in test [1] (setting [6]), less than 10 µM in test [1] (setting [7]) and more than 10 µM in test [2] (setting [8]).

Turning to `COc1ccc(Nc2nc(Nc3ccc4c(cnn4CCCOC(C)=O)c3)ncc2F)cc1Cl` [Compound 788, N2-[1-(3-Acetyloxypropyl)indazol-5-yl]-N4-(3-chloro-4-methoxyphenyl)-5-fluoro-2,4-pyrimidinediamine], the IC50 in test [1] (setting [6]) is less than 10 µM; in test [1] (setting [7]), less than 10 µM; in test [2] (setting [8]), more than 10 µM.

In the case of `COc1cc(Nc2nc(Nc3ccc4c(cnn4CCCOC(C)=O)c3)ncc2F)ccc1F` [Compound 789, N2-[1-(3-Acetyloxypropyl)indazol-5-yl]-5-fluoro-N4-(4-fluoro-3-methoxyphenyl)-2,4-pyrimidinediamine], the IC50 was less than 10 µM in test [1] (setting [6]), less than 10 µM in test [1] (setting [7]) and more than 10 µM in test [2] (setting [8]).

For `CC(=O)OCCCn1ncc2ccc(Nc3ncc(F)c(Nc4ccc(Cl)c(Cl)c4)n3)cc21` [Compound 790, N2-[1-(3-Acetyloxypropyl)indazol-6-yl]-N4-(3,4-dichlorophenyl)-5-fluoro-2,4-pyrimidinediamine], the IC50 in test [1] (setting [6]) is less than 10 µM; in test [1] (setting [7]), less than 10 µM; in test [2] (setting [8]), more than 10 µM.

In the case of `CC1(C)Oc2ccc(Nc3nc(Nc4ccc5cnn(CCCO)c5c4)ncc3F)cc2NC1=O` [Compound 791, N4-(2,2-Dimethyl-3-oxo-4H-benz[1,4]oxazin-6-yl)-5-fluoro-N2-[1-(3-hydroxypropyl)indazol-6-yl]-2,4-pyrimidinediamine], the IC50 in test [1] (setting [6]) was less than 10 µM; in test [1] (setting [7]), less than 10 µM; in test [2] (setting [8]), more than 10 µM.

In the case of `COCCCn1ncc2cc(Nc3ncc(F)c(Nc4ccc(Cl)c(Cl)c4)n3)ccc21` [Compound 793, N4-(3,4-Dichlorophenyl)-5-fluoro-N2-[1-(3-methoxypropyl)indazol-5-yl]-2,4-pyrimidinediamine], the IC50 in test [1] (setting [6]) was less than 10 µM; in test [1] (setting [7]) it was less than 10 µM; in test [2] (setting [8]), more than 10 µM.

For `COCCCn1ncc2cc(Nc3ncc(F)c(Nc4ccc5c(c4)NC(=O)C(C)(C)O5)n3)ccc21` [Compound 794, N4-(2,2-Dimethyl-3-oxo-4H-benz[1,4]oxazin-6-yl)-5-fluoro-N2-[1-(3-methoxypropyl)indazol-5-yl]-2,4-pyrimidinediamine], the IC50 in test [1] (setting [6]) was less than 10 µM; in test [1] (setting [7]) it was less than 10 µM; in test [2] (setting [8]) it was more than 10 µM.
